Reference: PubChem BioAssay (NCI)
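Protocol summary: plate cells (96-well), add compound at 5 concentrations, incubate 48 h, interpolate endpoints linearly. TGI denotes the concentration required for complete inhibition of growth.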

Legend:
Test in all cases: growth of human tumour cells (NCI), 48 h
[1] = system: 786-0 renal
[2] = system: A498 renal
[3] = system: ACHN renal
[4] = system: CAKI-1 renal
[5] = system: CCRF-CEM leukemia
[6] = system: COLO 205 colon
[7] = system: DLD-1 colon
[8] = system: DMS 114 small cell lung
[9] = system: DMS 273 small cell lung
[10] = system: HCC-2998 colon
[11] = system: HCT-116 colon
[12] = system: HL-60(TB) leukemia
[13] = system: HOP-62 NSCLC
[14] = system: HOP-92 NSCLC
[15] = system: IGROV1 ovarian
[16] = system: K-562 leukemia
[17] = system: LXFL 529 NSCLC
[18] = system: M14 melanoma
[19] = system: M19-MEL melanoma
[20] = system: MALME-3M melanoma
[21] = system: MOLT-4 leukemia
[22] = system: NCI-H226 lung
[23] = system: NCI-H23 lung
[24] = system: NCI-H522 lung
[25] = system: OVCAR-4 ovarian
[26] = system: RPMI-8226 leukemia
[27] = system: SF-268 CNS
[28] = system: SF-539 CNS
[29] = system: SK-MEL-2 melanoma
[30] = system: SK-MEL-28 melanoma
[31] = system: SK-OV-3 ovarian
[32] = system: SN12C renal
[33] = system: SNB-75 CNS
[34] = system: SNB-78 CNS
[35] = system: SR leukemia
[36] = system: UACC-62 melanoma
[37] = system: UO-31 renal
[38] = system: XF 498 CNS
[39] = system: A549 NSCLC
[40] = system: EKVX NSCLC
[41] = system: HCT-15 colon
[42] = system: HOP-18 NSCLC
[43] = system: HT29 colon
[44] = system: KM20L2 colon
[45] = system: LOX IMVI melanoma
[46] = system: NCI-H460 lung
[47] = system: OVCAR-3 ovarian
[48] = system: OVCAR-5 ovarian
[49] = system: OVCAR-8 ovarian
[50] = system: RXF 393 renal
[51] = system: SF-295 CNS
[52] = system: SK-MEL-5 melanoma
[53] = system: SNB-19 CNS
[54] = system: SW-620 colon
[55] = system: TK-10 renal
[56] = system: U251 CNS
[57] = system: UACC-257 melanoma
[58] = system: KM12 colon

Cc1ncc(CBr)c(CBr)c1O
TGI [1]: > 100 µM
TGI [2]: > 100 µM
TGI [3]: > 100 µM
TGI [4]: > 100 µM
TGI [5]: > 100 µM
TGI [6]: > 100 µM
TGI [7]: > 100 µM
TGI [8]: > 100 µM
TGI [9]: > 100 µM
TGI [10]: > 100 µM
TGI [11]: > 100 µM
TGI [12]: > 100 µM
TGI [13]: > 100 µM
TGI [14]: > 100 µM
TGI [15]: > 100 µM
TGI [16]: > 100 µM
TGI [17]: > 100 µM
TGI [18]: > 100 µM
TGI [19]: > 100 µM
TGI [20]: > 100 µM
TGI [21]: > 100 µM
TGI [22]: > 100 µM
TGI [23]: > 100 µM
TGI [24]: > 100 µM
TGI [25]: > 100 µM
TGI [26]: > 100 µM
TGI [27]: > 100 µM
TGI [28]: > 100 µM
TGI [29]: > 100 µM
TGI [30]: > 100 µM
TGI [31]: > 100 µM
TGI [32]: > 100 µM
TGI [33]: > 100 µM
TGI [34]: > 100 µM
TGI [35]: > 100 µM
TGI [36]: > 100 µM
TGI [37]: > 100 µM
TGI [38]: > 100 µM

Fc1ccc(N=C2C=CC(=Nc3ccc(F)cc3)c3ccccc32)cc1
TGI [1]: > 100 µM
TGI [2]: > 100 µM
TGI [39]: > 100 µM
TGI [3]: > 100 µM
TGI [5]: > 100 µM
TGI [6]: > 100 µM
TGI [7]: > 100 µM
TGI [9]: > 100 µM
TGI [40]: > 100 µM
TGI [10]: > 100 µM
TGI [11]: > 100 µM
TGI [41]: > 100 µM
TGI [12]: > 100 µM
TGI [42]: > 100 µM
TGI [13]: > 100 µM
TGI [14]: > 100 µM
TGI [43]: > 100 µM
TGI [15]: > 100 µM
TGI [16]: > 100 µM
TGI [44]: > 100 µM
TGI [45]: > 100 µM
TGI [17]: > 100 µM
TGI [18]: > 100 µM
TGI [19]: > 100 µM
TGI [20]: > 100 µM
TGI [21]: > 100 µM
TGI [22]: > 100 µM
TGI [23]: > 100 µM
TGI [46]: > 100 µM
TGI [24]: > 100 µM
TGI [47]: > 100 µM
TGI [48]: > 100 µM
TGI [49]: > 100 µM
TGI [26]: > 100 µM
TGI [50]: > 100 µM
TGI [27]: > 100 µM
TGI [51]: > 100 µM
TGI [28]: > 100 µM
TGI [29]: > 100 µM
TGI [30]: > 100 µM
TGI [52]: > 100 µM
TGI [31]: > 100 µM
TGI [32]: > 100 µM
TGI [53]: > 100 µM
TGI [33]: > 100 µM
TGI [34]: > 100 µM
TGI [35]: > 100 µM
TGI [54]: > 100 µM
TGI [55]: > 100 µM
TGI [56]: > 100 µM
TGI [57]: > 100 µM
TGI [36]: > 100 µM
TGI [37]: > 100 µM
TGI [38]: > 100 µM

CCOC(=O)C(=O)C(C#N)c1ccc(Cl)cc1 (stereo unspecified)
TGI [1]: > 100 µM
TGI [2]: > 100 µM
TGI [39]: > 100 µM
TGI [3]: > 100 µM
TGI [4]: > 100 µM
TGI [6]: > 100 µM
TGI [7]: > 100 µM
TGI [8]: > 100 µM
TGI [9]: > 100 µM
TGI [40]: > 100 µM
TGI [11]: > 100 µM
TGI [41]: > 100 µM
TGI [12]: > 100 µM
TGI [13]: > 100 µM
TGI [14]: > 100 µM
TGI [43]: > 100 µM
TGI [15]: > 100 µM
TGI [16]: > 100 µM
TGI [44]: > 100 µM
TGI [45]: > 100 µM
TGI [17]: > 100 µM
TGI [18]: > 100 µM
TGI [19]: > 100 µM
TGI [20]: > 100 µM
TGI [21]: > 100 µM
TGI [22]: > 100 µM
TGI [23]: > 100 µM
TGI [46]: > 100 µM
TGI [24]: > 100 µM
TGI [47]: > 100 µM
TGI [25]: > 100 µM
TGI [48]: > 100 µM
TGI [49]: > 100 µM
TGI [26]: > 100 µM
TGI [50]: > 100 µM
TGI [27]: > 100 µM
TGI [51]: > 100 µM
TGI [28]: > 100 µM
TGI [29]: > 100 µM
TGI [30]: > 100 µM
TGI [52]: > 100 µM
TGI [31]: > 100 µM
TGI [32]: > 100 µM
TGI [53]: > 100 µM
TGI [33]: > 100 µM
TGI [34]: > 100 µM
TGI [54]: > 100 µM
TGI [55]: > 100 µM
TGI [56]: > 100 µM
TGI [57]: > 100 µM
TGI [36]: > 100 µM
TGI [37]: > 100 µM
TGI [38]: > 100 µM

O=c1n(CC2CS2)c2ccccc2n1CC1CS1 (stereo unspecified)
TGI [3]: > 100 µM
TGI [4]: > 100 µM
TGI [5]: 79.7 µM
TGI [6]: > 100 µM
TGI [8]: > 100 µM
TGI [9]: > 100 µM
TGI [40]: > 100 µM
TGI [10]: > 100 µM
TGI [11]: 70.1 µM
TGI [41]: > 100 µM
TGI [12]: > 100 µM
TGI [13]: > 100 µM
TGI [14]: > 100 µM
TGI [15]: > 100 µM
TGI [16]: > 100 µM
TGI [58]: > 100 µM
TGI [45]: > 100 µM
TGI [17]: > 100 µM
TGI [18]: > 100 µM
TGI [19]: > 100 µM
TGI [20]: 74.4 µM
TGI [21]: 69.1 µM
TGI [24]: > 100 µM
TGI [47]: > 100 µM
TGI [25]: > 100 µM
TGI [26]: 88.6 µM
TGI [27]: > 100 µM
TGI [29]: > 100 µM
TGI [31]: > 100 µM
TGI [32]: > 100 µM
TGI [33]: > 100 µM
TGI [35]: > 100 µM
TGI [36]: > 100 µM
TGI [38]: > 100 µM

CC#CC#C/C=C1\C=CC2(OC=CC2O)O1 (stereo unspecified)
TGI [1]: > 23.3 µM
TGI [39]: > 23.3 µM
TGI [3]: > 23.3 µM
TGI [4]: > 23.3 µM
TGI [5]: > 21.1 µM
TGI [6]: 6.83 µM
TGI [7]: > 23.3 µM
TGI [8]: > 22.5 µM
TGI [9]: > 23.3 µM
TGI [40]: > 16.7 µM
TGI [10]: > 23.3 µM
TGI [11]: 22.9 µM
TGI [41]: > 23.3 µM
TGI [12]: > 23.3 µM
TGI [42]: 14.9 µM
TGI [13]: > 23.3 µM
TGI [14]: > 23.3 µM
TGI [43]: > 23.3 µM
TGI [15]: > 23.3 µM
TGI [16]: > 23.3 µM
TGI [58]: 7.3 µM
TGI [44]: 10.4 µM
TGI [45]: > 23.3 µM
TGI [17]: > 23.3 µM
TGI [18]: > 23.3 µM
TGI [19]: > 23.3 µM
TGI [20]: > 23.3 µM
TGI [21]: > 23.3 µM
TGI [22]: > 23.3 µM
TGI [23]: > 23.3 µM
TGI [46]: > 23.3 µM
TGI [24]: > 20.3 µM
TGI [47]: > 20 µM
TGI [25]: > 23.3 µM
TGI [48]: 11.8 µM
TGI [49]: > 23.3 µM
TGI [26]: > 23.3 µM
TGI [50]: > 22 µM
TGI [27]: > 23.3 µM
TGI [51]: > 23.3 µM
TGI [28]: > 23.3 µM
TGI [29]: > 23.3 µM
TGI [30]: > 23.3 µM
TGI [52]: > 23.3 µM
TGI [31]: > 23.3 µM
TGI [32]: > 23.3 µM
TGI [53]: > 23.3 µM
TGI [33]: > 23.3 µM
TGI [34]: > 7.37 µM
TGI [35]: > 23.3 µM
TGI [54]: > 23.3 µM
TGI [55]: > 23.3 µM
TGI [56]: > 23.3 µM
TGI [57]: > 23.3 µM
TGI [36]: > 23.3 µM
TGI [37]: > 23.3 µM
TGI [38]: > 23.3 µM
